Earlier results as cited in patent US20050169997A1, “Method for preparing resinates” (priority 2002, published 2005).

COc1ccc2c(c1)c(CC(=O)O)c(C)n2C(=O)c1ccc(Cl)cc1 [indomethacin]
solubility of indomethacin in water: 14 ppm
